According to article PMC4880976, “Pharmacologic rationale for the NK1R antagonist, aprepitant as adjunctive therapy in HIV” (Journal of Translational Medicine, 2016):

How the values were obtained:
[1] = 1 μM in DMEM 10 % FBS or MDM cultures, days 0-7
Description: A validated, liquid chromatography-tandem mass spectrometry method was used for the quantification of aprepitant plasma concentration in HIV infected animals and tissue culture media. The method utilized a simple sample-preparation procedure of protein precipitation with methanol. Chromatographic separation was performed on a reversed phase C8 column (Hypersil Gold, 50 mm × 2.1 mm, 3 μm) using a mobile phase composed of acetonitrile and water in 0.5 % formic acid through gradient elution. Electro-spray ionization in positive mode was incorporated in the tandem mass spectrometric detection. The lower limit of quantitation of aprepitant in human plasma was 1 ng/mL.
GAG expression in control (non-treated) cultures were designated as 100 %; *p < 0.0001 between all groups including control were obtained through one-way ANOVA with post-test analysis by Bonferroni’s Multiple Comparison Test indicating significant difference between all groups in pair wise comparison. b Aprepitant added to DMEM 10 % FBS media or MDM cultures at a concentration of 1 μM (0.53 μg/ml) on day 0 and measured on days 0, 1, 2, 3 and 7. Results are presented as mean ± SD for three independent experiments

[2] = test system: human PBMC; assay: SP dependent cytokine and chemokine production by PBMC, multiplex assay; type: cell-based; details: aprepitant 10 µM with SP 10 µM, 24 h
Description: For cytokine and PD-1 assessment experiments freshly isolated peripheral blood mononuclear cell (PBMC) purchased from the Human Immunology Core Facility of The University of Pennsylvania School of Medicine (Philadelphia, PA) were cultured in RPMI medium supplemented with 10 % FBS overnight. Some cultures were treated with SP (10 µM) aprepitant (10 µM) or DMSO (0.001 %, vehicle for aprepitant). Cytokine concentrations were measured in supernatants using multiplex assay 24 h after SP/aprepitant treatment (see below). For PD-1 expression SP and aprepitant were added at day 0 and PD-1 expression was monitored daily for up to 8 days using flow cytometry.
Concentrations of pro-inflammatory cytokines and chemokines in supernatants of human PBMC were measured using human Cytokine/Chemokine Magnetic Bead Panel—Premixed 30 Plex, HCYTMAG-60K-PX30 (Millipore, Billerica, MA, USA) as recommended by the manufacturers.
Fig. 5 SP dependent up regulation of cytokine and chemokine production by human PBMC* is inhibited by aprepitant. *Freshly isolated PBMC from normal donors were incubated for 24 h with SP and/or Aprepitant (10 µM each) as indicated. Control cultures were either left untreated of incubated with DMSO (vehicle for aprepitant). Pro-inflammatory markers were measured in supernatants using MILLIPORE Human Cytokine/Chemokine Magnetic Bead Panel.

[3] = test system: CD163 cleavage in human monocytes; assay: sCD163 release from human monocytes, ELISA; type: cell-based; details: aprepitant 10 μM 30 min before SP 5 μM 60 min, p = 0.004
Description: sCD163 was measured by ELISA (Trillium Diagnostics, Brewer, Maine, USA) according to manufacturer’s recommendations.
Fig. 7 SP induces cleavage of CD163 in monocytes. sCD163 was measured by ELISA in the supernatant of freshly isolated human monocytes treated with SP and aprepitant as indicated. a Time course of cells treated with varying doses of SP as indicated. *p < 0.001 control versus 5 and 10 μM of SP. b Cells were pre-incubated with aprepitant (10 μM) for 30 min and then treated with SP (5 μM) for 60 min. *p < 0.001 SP versus control, p = 0.004 SP versus SP + aprepitant. Results are presented as mean ± SD from three independent experiments

[4] = in vivo; details: male, rhesus monkey
Description: A pilot study in two groups of three male Rhesus macaques (Macaca mulatta) was conducted to assess the exposure attained following once daily dosing of 80 and 125 mg aprepitant administered orally for 14 days (n = 3 per dose group). The 80 and 125 mg doses correlate with the human doses recommended for CINV patients (125 mg orally 1 h prior to chemotherapy treatment (day 1) and 80 mg orally once daily in the morning on days 2 and 3). On a weight basis these doses represent approximately 8 and 12.5 mg/kg (weight range, 7–12 kg for the rhesus) compared to 1.14 and 1.79 mg/kg human doses (assuming a 70 kg person). […] Blood was collected for dense PK sampling on days 1, 7 and 14 and trough samples were collected prior to dosing on days 3, 5, 7, 11 and 13.
Blood was collected for PK sampling on days 1, 7 and 14 and trough samples were collected prior to dosing on days 3, 5, 7, 11 and 13. Viral loads were assessed at 2 and 4 weeks after infection and monthly thereafter. […] Behavioral data were collected using video cameras installed on walls opposite the caging. Videotaping was scheduled to avoid disruptions in daily feedings, routine husbandry and research procedures. Data were collected pre-infection, 2 and 4 weeks post-infection and monthly thereafter. Videotaped recordings were analyzed using Observer XT® (Noldus IT). Animals were sacrificed and necropsied after 1 year.

[5] = test system: anxiety-related behavior; assay: Anxiety-related behavior in SIV infected rhesus macaque (video recordings); type: in vivo; details: 125 mg/day
Description: Blood was collected for PK sampling on days 1, 7 and 14 and trough samples were collected prior to dosing on days 3, 5, 7, 11 and 13. […] Videotaped recordings were analyzed using Observer XT® (Noldus IT). Animals were sacrificed and necropsied after 1 year.
Fig. 4 Anxiety-related behavior* time course in SIV infected rhesus macaque receiving aprepitant at 125 mg/day or placebo. *Anxiety-related behavior was calculated based on the following parameters: body shake, hypervigilant scanning, self-licking and self-grooming, scratching, unresponsive inactivity and yawning.

C[C@@H](O[C@H]1OCCN(Cc2n[nH]c(=O)[nH]2)[C@H]1c1ccc(F)cc1)c1cc(C(F)(F)F)cc(C(F)(F)F)c1 [aprepitant]
degradation in culture media [1]: little or no degradation | effect on SP induced cytokine and chemokine production [2]: blocked | effect on SP induced sCD163 release [3]: inhibited | Kp [4]: 0.0005 to 0.008 | decline in trough exposure between days 13 and 14 (extent of induction) [4]: approximately 32.5% | trough plasma concentration reaches steady state [4]: ≤ 10 days | anxiety-related behavior versus control ([5]; after first 4 weeks (weeks 12-20)): significant reduction of anxiety | anxiety-related behavior versus control ([5]; first 4 weeks after infection): no significant difference
